These results are taken from patent US20090318381A1, “Halogenated alkyl di-and trisaccharides, pharmaceutical formulations, diagnostic kits and methods of treatment” (priority 2006, published 2009).

For test [1], the system named is Adenovirus Infection of Bladder Epithelium. To be noted: pretreatment agent; Ramesh et al., Molecular Therapy 2004; cited from earlier work.
The next test has as its system Listeria Monocytogenes. Particulars: in conjunction with certain organic acids; J. Applied Bacteriol. 1996; cited from earlier work.
In the next test the test system is Staphylococcus aureus. The test is described as follows: Antimicrobial testing, time-kill log reduction against S. aureus. The class given is cell-based. Particulars: for Concentration (CFU/mL): 5 ml of 1% Compound 3 solution + 20 ml PBS pH 7.2; for Log Reduction: log inoculum verification minus sample log recovery. The protocol: (§1) The preferred embodiment was tested for antimicrobial activity using the following procedure.
(§2) A 1% solution of Compound 3 was prepared in DPBS (Dulbecco's phosphate buffered saline). A 25 ml mixture of the 1% Compound 3 and PBS (phosphate buffered saline, pH 7.2 was prepared by mixing 5 ml of the 1% Compound 3 solution and 20 ml of the PBS.
(§3) A 10 ml aliquot of the above mixture was placed into each of two sterile test tubes. One test tube was inoculated with 0.1 ml of S. aureus and the other with 0.1 ml of P. aeruginosa, such that there was a final concentration of 10^6 colony-forming units (CFU)/0.1 mls.
(§4) A various time points, 1.0 ml of each inoculated test sample were removed, diluted 10× with 0.45% saline and plated on trypticase soy agar (TSA) plates.
(§5) Samples of PBS was treated in the same manner. At time points 5 mins and 60 mins, two 1 ml samples were taken and diluted 1 × and one spiked with a 0.1 ml aliquot of the S. aureus and the other spiked with 0.1 ml of the P aeruginosa.
(§6) The plates were incubated at 30-35° C. for not less than 24 hours. Concentration of CFU in the samples taken at each time point were enumerated by standard methods. The log reduction was calculated for each time period and organism. The log reduction was calculated using the formula: Log reduction=Log inoculums verification−sample log recovery.

In a further test the test system is Pseudomonas aeruginosa. As to the kind of experiment: Antimicrobial testing, time-kill log reduction against P. aeruginosa. The class given is cell-based. Particulars: for Concentration (CFU/mL): 5 ml of 1% Compound 3 solution + 20 ml PBS pH 7.2; for Log Reduction: log inoculum verification minus sample log recovery. On the procedure: as §1, §2, §3, §4, §5, §6

Where [2] appears, read: antimicrobial if greater than 5 log reduction.

With `CCCCCCCCCCCCO[C@@H]1O[C@H](CO)[C@@H](O[C@H]2O[C@H](CO)[C@@H](O)[C@H](O)[C@H]2O)[C@H](O)[C@H]1O` [dodecyl maltoside], the “increasing the effectiveness of gene and oncolytic virus therapy” value in test [1] is reported as “effective”.

Take sucrose monolaurate: the “increasing the effectiveness of gene and oncolytic virus therapy” value in test [1] is recorded as “effective”. Moreover, the “anti-microbial against Listeria Monocytogenes” value in the test on Listeria Monocytogenes is “effective anti-microbial”.

On to `CCCCCCCCCCCC(=O)OCC1O[C@H](O[C@@]2(CCl)O[C@H](CCl)C(O)C2O)C(O)C(O)[C@H]1Cl` (stereo in doubt) [Compound 3, 1′,6′-Dichloro-1′,6′-dideoxy-β-D-fructofuranosyl-4-chloro-4-deoxy-6-O-monododecanoate-α-D-galactopyranoside], for which the “Concentration (CFU/mL)” value in the test on Staphylococcus aureus (5 minutes) was 6.9 × 10^5 CFU/mL; in the test with Staphylococcus aureus (15 minutes), 4.3 × 10^4 CFU/mL; in the test on Staphylococcus aureus (30 minutes) it was 1.41 × 10^4 CFU/mL; in the test on Staphylococcus aureus (60 minutes), 2.9 × 10^3 CFU/mL; in the test on Pseudomonas aeruginosa (5 minutes), 1.53 × 10^6 CFU/mL; with Pseudomonas aeruginosa (15 minutes), 1.1 × 10^6 CFU/mL. Also, the “Concentration (CFU/mL)” value in the test on Pseudomonas aeruginosa (30 minutes) is 1.21 × 10^6 CFU/mL; in the test on Pseudomonas aeruginosa (60 minutes), “TNTC*”. The “Log Reduction” value in the test on Staphylococcus aureus (5 minutes) is 4; with Staphylococcus aureus (15 minutes), 5.2; in the test on Staphylococcus aureus (30 minutes), 5.7; in the test with Staphylococcus aureus (60 minutes) it was 6.3; with Pseudomonas aeruginosa (5 minutes), 3.5; with Pseudomonas aeruginosa (15 minutes) it was 3.7. Moreover, the “Log Reduction” value with Pseudomonas aeruginosa (30 minutes) is 3.6. Moreover, the antimicrobial effect entry in the test with Staphylococcus aureus (setting [2]) is “has antimicrobial effect”; in the test on Pseudomonas aeruginosa (setting [2]), “not”.
